Where a name gives a salt, the structure may show the parent alone.
Columns and labels:
[1] = Polymorphism screen of hydrochloride and benzoate salts: thermal cycling, evaporation, antisolvent addition, cooling (XRPD); type: physicochemical; conditions: for 3-day Observations / XRPD Result: hydrochloride salt, three days; for 3-day Observations: thermally cycled between ambient and 40° C., -17 Forma; for 3-day Observations / Initial Observations / XRPD Result: solvent per experiment: -01 1,4-Dioxane, -02 1-Propanol, -03 2-Butanol, -05 2-Methyltetrahydrofuran, -06 2-Propanol, -07 Acetone, -08 Acetonitrile, -09 Anisole, -10 Chlorobenzene, -11 Ethanol, -12 Ethyl acetate, -13 Isopropyl acetate, -14 Methanol, -15 Propyl acetate, -16 Methylethyl ketone; for 3-day Observations / Initial Observations: -04 2-Ethoxyethanol; for Initial Observations: thermal cycle of lyophilised hydrochloride salt (~40 mg), solvent added, -17 Formamide; for XRPD Result: solid isolated after thermal cycle between ambient and 40° C., -20 iso-Prop
Procedure: Twenty five of the lyophilised samples were treated with solvent and thermally cycled between ambient and 40° C. with four hours spent under each condition. After three days and solids were isolated by centrifuge filtration and analysed by XRPD.
(§1) Twelve samples of the lyophilised material were treated with a minimal volume (ca 0.5 ml) of warm solvent, syringe filtered through a 0.22 µm filter and added to a clean HPLC vial and allowed to evaporate at RT. The solvents used and XRPD results following evaporation are detailed in the Table below:
as §1, with “micrometre” for “µm”
For antisolvent additions thirteen samples of the lyophilised material were dissolved in a small amount of hot solvent (^˜0.5 ml). […] A large excess of antisolvent was then added, the vials sealed. After storage at RT overnight, and samples where no solid had been produced were first cooled to 4° C. for ˜24 hrs, and again if no solid was produced, they were cooled to −18° C. Any solids were isolated by centrifuge filtration and analysed by XRPD.
For the cooling experiments twelve samples of the lyophilised material were dissolved in a small amount of hot solvent (^˜[…]) and syringe filtered through a 0.22 μm filter into a clean HPLC vial. Samples were allowed to cool to RT, and if no solid was produced to 4° C. and then to −18° C. Solids were isolated by centrifuge filtration and analysed by XRPD.

[2] = Thermo-Gravimetric Analysis (TGA), thermal stability; conditions: 10° C./min; for thermal stability up to (TGA): nitrogen
Procedure: Thermo—Gravimetric Analysis (TGA)
TGA thermograms were obtained with a TA Instrument Discovery 550 in Al pans. The heating rate used was 10° C./min linear ramp from 25 to 400° C. with a nitrogen purging at a rate of 60 ml/min. TGA thermograms were analysed using TRIOS software.

[3] = Dynamic Vapor Sorption (DVS), salt screen and scale-up salts; type: physicochemical; conditions: 25° C.
Procedure: Dynamic Vapor Sorption (DVS)
DVS analyses were performed on TA Instrument DVS Q5000. Samples were added to a pre-tared metallised quartz crucible and run at 25° C. from 40% RH to 90% RH, down to zero and back to 40%. This cycle was repeated in increments of 10% RH.

[4] = listed as DJP2202-007-14, hydrochloride

Row | Compound | 3-day Observations [1] | Initial Observations [1] | XRPD Result [1] | other results
1 | COc1ccc2[nH]cc(CCN(C)C)c2c1.Cl [DJP2202-007-17] | few crystals | dissolved |  | 
2 | COc1ccc2[nH]cc(CCN(C)C)c2c1.Cl [hydrochloride salt, 5-MeO-DMT hydrochloride] |  |  |  | thermal stability up to (TGA) [2]: ~235 °C; XRPD Results ([1]; evaporation at RT of lyophilised hydrochloride salt from 1-PrOH (DJP2202-011-02)): Pattern 1; XRPD Results ([1]; evaporation at RT of lyophilised hydrochloride salt from EtOH (DJP2202-011-05)): Pattern 1; XRPD Results ([1]; evaporation at RT of lyophilised hydrochloride salt from IPA (DJP2202-011-06)): Pattern 1; XRPD Results ([1]; evaporation at RT of lyophilised hydrochloride salt from MEK (DJP2202-011-11)): Pattern 1; XRPD Results ([1]; evaporation at RT of lyophilised hydrochloride salt from MeCN (DJP2202-011-12)): Oil
3 | COc1ccc2[nH]cc(CCN(C)C)c2c1.Cl [DJP2202-007-13] | white solid | no change | Pattern 1 | 
4 | COc1ccc2[nH]cc(CCN(C)C)c2c1.Cl [Hydrochloride pattern 3, 5-MeO-DMT hydrochloride] |  |  |  | start of decomposition / complete mass loss (TGA) ([2]; hydrochloride): around 260 °C; XRPD Result [1, 4]: Pattern 3; 3-day Observations [1, 4]: clear solution; Initial Observations [1, 4]: dissolved
5 | COc1ccc2[nH]cc(CCN(C)C)c2c1.Cl [DJP2202-007-23] | clear solution | dissolved |  | 
6 | COc1ccc2[nH]cc(CCN(C)C)c2c1.Cl [DJP2202-007-10] | white solid | no change | Pattern 1 | 
7 | COc1ccc2[nH]cc(CCN(C)C)c2c1.Cl [DJP2202-007-09] |  | no change | Pattern 1 | 
8 | COc1ccc2[nH]cc(CCN(C)C)c2c1 [Ketoglutarate salt, 5-MeO-DMT ketoglutarate] |  |  |  | water uptake at 40% RH ([3]; first sorption isotherm): 0.13 % w/w; deliquescence during DVS ([3]; high RH): deliquesce at high RH
9 | COc1ccc2[nH]cc(CCN(C)C)c2c1.O=C(O)c1ccccc1 [benzoate salt pattern 2, 5-MeO-DMT benzoate] |  |  |  | thermal stability up to (TGA) [2]: ~170 °C
10 | COc1ccc2[nH]cc(CCN(C)C)c2c1.Cl [DJP2202-007-07] | few crystals | no change | Pattern 1 | 
11 | COc1ccc2[nH]cc(CCN(C)C)c2c1.Cl [DJP2202-007-15] |  | no change | Pattern 1 | 
12 | COc1ccc2[nH]cc(CCN(C)C)c2c1.O=C(O)c1ccccc1 [benzoate salt pattern 3, 5-MeO-DMT benzoate] |  |  |  | start of decomposition / complete mass loss (TGA) [2]: approximately 190 °C
13 | COc1ccc2[nH]cc(CCN(C)C)c2c1.Cl [DJP2202-007-22] | few crystals | no change | Pattern 1 | 
14 | COc1ccc2[nH]cc(CCN(C)C)c2c1.Cl [DJP2202-007-25] | clear solution | dissolved |  | 
15 | COc1ccc2[nH]cc(CCN(C)C)c2c1.Cl [DJP2202-007-11] | white solid | no change | Pattern 1 | 
16 | COc1ccc2[nH]cc(CCN(C)C)c2c1 [free base, 5-methoxy-N,N-dimethyltryptamine] |  |  |  | thermal stability up to (TGA) [2]: 150 °C

Row | Compound | 3-day Observations [1] | Initial Observations [1] | XRPD Result [1] | other results
17 | COc1ccc2[nH]cc(CCN(C)C)c2c1.Cl [DJP2202-007-19] | clear solution | no change |  | 
18 | COc1ccc2[nH]cc(CCN(C)C)c2c1.Cl [DJP2202-007-18] | clear solution | dissolved |  | 
19 | COc1ccc2[nH]cc(CCN(C)C)c2c1.Cl [DJP2202-007-16] | white crystals | no change | Pattern 2 | 
20 | COc1ccc2[nH]cc(CCN(C)C)c2c1.Cl [DJP2202-007-24] | clear solution | dissolved |  | 
21 | COc1ccc2[nH]cc(CCN(C)C)c2c1.Cl [DJP2202-007-08] |  | no change | Pattern 1 | 
22 | COc1ccc2[nH]cc(CCN(C)C)c2c1 [Saccharinate salt, 5-MeO-DMT saccharinate] |  |  |  | thermal stability up to (TGA) [2]: 200 °C
23 | COc1ccc2[nH]cc(CCN(C)C)c2c1.Cl [DJP2202-007-04] | clear solution | dissolved |  | 
24 | COc1ccc2[nH]cc(CCN(C)C)c2c1.Cl [DJP2202-007-20] | few crystals | no change | Pattern 1 | 
25 | COc1ccc2[nH]cc(CCN(C)C)c2c1.Cl [DJP2202-007-03] | few crystals | no change | Pattern 1 | 
26 | COc1ccc2[nH]cc(CCN(C)C)c2c1.Cl [DJP2202-007-02] | few crystals | no change | Pattern 1 | 
27 | COc1ccc2[nH]cc(CCN(C)C)c2c1.Cl [DJP2202-007-12] | white solid | no change | Pattern 1 | 
28 | COc1ccc2[nH]cc(CCN(C)C)c2c1.Cl [DJP2202-007-05] | few crystals | no change | Pattern 1 | 
29 | COc1ccc2[nH]cc(CCN(C)C)c2c1.Cl [DJP2202-007-06] | few crystals | no change | Pattern 1 | 
30 | COc1ccc2[nH]cc(CCN(C)C)c2c1.O=C(O)c1ccccc1 [benzoate salt pattern 4, 5-MeO-DMT benzoate] |  |  |  | start of decomposition / complete mass loss (TGA) [2]: approximately 190 °C; thermal stability up to (TGA) [2]: approximately 190 °C
31 | COc1ccc2[nH]cc(CCN(C)C)c2c1.Cl [DJP2202-007-21] | few crystals | no change | Pattern 1 | 
